Reference: the supplement of paper PMC11061612

Legend:
Assay in all cases: Bliss excess, mean over the matrix (fraction); higher = more synergy
[1] = system: LU-139 (Small Cell Lung Carcinoma)
How it was run: (§1)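 Bliss excess equals the observed combination effect minus the expected value EA + EB − EA·EB, where EA and EB are the effects of each agent alone. Combination Emax is the second-highest inhibition within the matrix. Inhibition was scaled from CellTiter-Glo 2.0 luminescence, with 0 set by vehicle wells and 1 by blank wells, after 72 hours of two-drug dosing of cells plated in 1536-well plates.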

[2] = system: OC-314 (Ovarian Carcinoma)
How it was run: as §1

[3] = system: RT-112 (Bladder Carcinoma)
How it was run: as §1

[4] = system: KYSE-410 (Esophageal Squamous Cell Carcinoma)
How it was run: as §1

[5] = system: CAL-51 (Breast Carcinoma)
How it was run: as §1

HMV-II (Melanoma) = system: HMV-II (Melanoma)
How it was run: as §1

[6] = system: PCI-30 (Head and Neck Carcinoma)
How it was run: as §1

[7] = system: MDA-MB-468 (Breast Carcinoma)
How it was run: as §1

COLO-829 (Melanoma) = system: COLO-829 (Melanoma)
How it was run: as §1

[8] = system: NCI-H747 (Colorectal Carcinoma)
How it was run: as §1

NCI-H28 (Mesothelioma) = system: NCI-H28 (Mesothelioma)
How it was run: as §1

[9] = system: CTB-1 (B-Cell Non-Hodgkin's Lymphoma)
How it was run: as §1

[10] = system: KARPAS-231 (B-Cell Non-Hodgkin's Lymphoma)
How it was run: as §1

[11] = system: SUP-T1 (T-Lymphoblastic Leukemia)
How it was run: as §1

[12] = system: TE-4 (Esophageal Squamous Cell Carcinoma)
How it was run: as §1

[13] = system: LB771-HNC (Head and Neck Carcinoma)
How it was run: as §1

[14] = system: 8305C (Thyroid Gland Carcinoma)
How it was run: as §1

[15] = system: RKO (Colorectal Carcinoma)
How it was run: as §1

[16] = system: CAL-54 (Kidney Carcinoma)
How it was run: as §1

[17] = system: SW1271 (Small Cell Lung Carcinoma)
How it was run: as §1

Row | SMILES | Bliss excess [1] | Bliss excess [2] | Bliss excess [3] | Bliss excess [4] | Bliss excess [5] | Bliss excess (HMV-II (Melanoma)) | Bliss excess [6] | Bliss excess [7] | Bliss excess (COLO-829 (Melanoma)) | Bliss excess [8] | Bliss excess (NCI-H28 (Mesothelioma)) | Bliss excess [9] | Bliss excess [10] | Bliss excess [11] | Bliss excess [12] | Bliss excess [13] | Bliss excess [14] | Bliss excess [15] | Bliss excess [16] | Bliss excess [17]
1 | CN(C)CCCOc1ccc(-c2ccc3ncc4c(c3c2)n(C2CCOCC2)c(=O)n4C)cn1 [AZD0156] + C=CCn1c(=O)c2cnc(Nc3ccc(N4CCN(C)CC4)cc3)nc2n1-c1cccc(C(C)(C)O)n1 [AZD1775] (first compound max 1 µM, partner max 1 µM) | -0.0479 | -0.0141 | -0.0193 | -0.0464 | -0.0303 | -0.0182 | -0.0356 | -0.0449 | -0.0486 | -0.0309 | -0.0066 | 0.0101 | 0.0355 | -0.0251 | -0.0599 | -0.0593 | 0.012 | -0.0252 | -0.043 | -0.0895
2 | CN(C)CCCOc1ccc(-c2ccc3ncc4c(c3c2)n(C2CCOCC2)c(=O)n4C)cn1 [AZD0156] + CCN(CCO)CCCOc1ccc2c(Nc3cc(CC(=O)Nc4cccc(F)c4)[nH]n3)ncnc2c1 [AZD2811] (first compound max 1 µM, 7x7, partner max 1 µM) | -0.0441 | 0.0078 | -0.0098 | -0.0431 | 0.0226 | -0.0133 | -0.013 | -0.0326 | -0.0587 | -0.02 | -0.0381 | 0.002 | -0.0205 | 0.0321 | -0.0129 | -0.0498 | -0.0794 | 0.014 | -0.0129 | -0.0322
3 | CN(C)CCCOc1ccc(-c2ccc3ncc4c(c3c2)n(C2CCOCC2)c(=O)n4C)cn1 [AZD0156] + C[C@@H]1COCCN1C2=NC(=NC(=C2)C3(CC3)[S@](=N)(=O)C)C4=C5C=CNC5=NC=C4 [AZD6738] (first compound max 1 µM, 7x7, partner max 10 µM) | -0.0323 | 0.0095 | 0.0798 | -0.0201 | 0.0198 | -0.0018 | 0.0081 | -0.011 | -0.0327 | -0.0103 | -0.0606 | -0.063 | 0.0732 | -0.0344 | 0.0507 | -0.025 | -0.0765 | 0.0186 | -0.0136 | 0.0015
4 | C=CCn1c(=O)c2cnc(Nc3ccc(N4CCN(C)CC4)cc3)nc2n1-c1cccc(C(C)(C)O)n1 [AZD1775] + C[C@@H]1COCCN1C2=NC(=NC(=C2)C3(CC3)[S@](=N)(=O)C)C4=C5C=CNC5=NC=C4 [AZD6738] (first compound max 1 µM, partner max 10 µM) | -0.0149 | 0.0937 | 0.0578 | -0.0061 | 0.0981 | -0.0327 | 0.0406 | 0.0344 | -0.0194 | -0.0002 | 0.0066 | -0.0464 | 0.0545 | -0.0352 | 0.0485 | -0.0057 | -0.122 | 0.0529 | -0.0377 | -0.0474
5 | C=CCn1c(=O)c2cnc(Nc3ccc(N4CCN(C)CC4)cc3)nc2n1-c1cccc(C(C)(C)O)n1 [AZD1775] + O=C(c1cc(Cc2n[nH]c(=O)c3ccccc23)ccc1F)N1CCN(C(=O)C2CC2)CC1 [Olaparib] (first compound max 1 µM, partner max 10 µM) | -0.0775 | 0.0291 | 0.0461 | -0.04 | -0.0122 | -0.0279 | -0.0579 | -0.0449 | -0.0137 | 0.0175 | -0.0568 | -0.0921 | -0.0554 | -0.017 | 0.0271 | -0.0622 | -0.0762 | -0.0119 | -0.0341 | -0.0488
6 | CCN(CCO)CCCOc1ccc2c(Nc3cc(CC(=O)Nc4cccc(F)c4)[nH]n3)ncnc2c1 [AZD2811] + C=CCn1c(=O)c2cnc(Nc3ccc(N4CCN(C)CC4)cc3)nc2n1-c1cccc(C(C)(C)O)n1 [AZD1775] (first compound max 1 µM, partner max 1 µM) | -0.0426 | 0.0976 | 0.0233 | -0.0179 | 0.0511 | -0.0339 | 0.0191 | 0.0205 | 0.0009 | -0.0538 | -0.0541 | 0.0011 | 0.0395 | 0.0302 | -0.0057 | -0.0295 | -0.0355 | -0.0625 | -0.032 | -0.02
7 | CCN(CCO)CCCOc1ccc2c(Nc3cc(CC(=O)Nc4cccc(F)c4)[nH]n3)ncnc2c1 [AZD2811] + C[C@@H]1COCCN1C2=NC(=NC(=C2)C3(CC3)[S@](=N)(=O)C)C4=C5C=CNC5=NC=C4 [AZD6738] (first compound max 1 µM, 7x7, partner max 10 µM) | -0.108 | 0.0052 | -0.0581 | -0.0514 | 0.0075 | -0.0395 | -0.0516 | -0.0977 | -0.0217 | -0.044 | -0.0554 | -0.0826 | 0.0064 | -0.0291 | -0.047 | -0.0492 | -0.0872 | -0.0152 | -0.0383 | -0.0829
8 | CCN(CCO)CCCOc1ccc2c(Nc3cc(CC(=O)Nc4cccc(F)c4)[nH]n3)ncnc2c1 [AZD2811] + O=C(c1cc(Cc2n[nH]c(=O)c3ccccc23)ccc1F)N1CCN(C(=O)C2CC2)CC1 [Olaparib] (first compound max 1 µM, 7x7, partner max 10 µM) | -0.0495 | 0.0254 | 0.0427 | -0.0308 | 0.0272 | -0.0302 | -0.031 | 0.0541 | 0.0233 | 0.03 | -0.0383 | -0.0508 | 0.0091 | 0.0208 | 0.0049 | 0.0255 | -0.0398 | 0.0655 | -0.0073 | -0.0312
9 | CN(CCO)CC[C@H](CSc1ccccc1)Nc1ccc(S(=O)(=O)NC(=O)c2ccc(N3CCC([C@@H](O)c4ccccc4-c4ccc(Cl)cc4)CC3)cc2)cc1S(=O)(=O)C(F)(F)F [AZD4320] + C1CN(CCC1(C(=O)N[C@@H](CCO)C2=CC=C(C=C2)Cl)N)C3=NC=NC4=C3C=CN4 [Capivasertib] (first compound max 1 µM, 7x7, partner max 3 µM) | -0.0328 | -0.0007 | -0.039 | -0.0686 | -0.0089 | -0.0431 | -0.0402 | -0.0528 | -0.0988 | -0.0682 | -0.0821 | -0.0277 | 0.0407 | -0.0639 | -0.0317 | -0.0148 | -0.0663 | -0.0191 | -0.0694 | -0.0606
10 | CN(CCO)CC[C@H](CSc1ccccc1)Nc1ccc(S(=O)(=O)NC(=O)c2ccc(N3CCC([C@@H](O)c4ccccc4-c4ccc(Cl)cc4)CC3)cc2)cc1S(=O)(=O)C(F)(F)F [AZD4320] + C=CCn1c(=O)c2cnc(Nc3ccc(N4CCN(C)CC4)cc3)nc2n1-c1cccc(C(C)(C)O)n1 [AZD1775] (first compound max 1 µM, partner max 1 µM) | 0.0145 | -0.0187 | -0.0285 | -0.0313 | -0.0122 | 0.0496 | 0.0013 | 0.032 | -0.0167 | -0.0238 | 0.0115 | -0.0309 | 0.117 | 0.0212 | -0.0044 | -0.0049 | -0.0178 | -0.0003 | 0.146 | 0.0152
11 | CN(CCO)CC[C@H](CSc1ccccc1)Nc1ccc(S(=O)(=O)NC(=O)c2ccc(N3CCC([C@@H](O)c4ccccc4-c4ccc(Cl)cc4)CC3)cc2)cc1S(=O)(=O)C(F)(F)F [AZD4320] + CCN(CCO)CCCOc1ccc2c(Nc3cc(CC(=O)Nc4cccc(F)c4)[nH]n3)ncnc2c1 [AZD2811] (first compound max 1 µM, 7x7, partner max 1 µM) | 0.0775 | 0.156 | 0.172 | -0.0437 | 0.0881 | -0.0357 | -0.0085 | 0.0461 | -0.0465 | -0.0558 | -0.0045 | -0.0596 | 0.0493 | 0.0933 | -0.0186 | -0.0227 | 0.0076 | -0.0162 | -0.0406 | -0.0428
12 | CN(CCO)CC[C@H](CSc1ccccc1)Nc1ccc(S(=O)(=O)NC(=O)c2ccc(N3CCC([C@@H](O)c4ccccc4-c4ccc(Cl)cc4)CC3)cc2)cc1S(=O)(=O)C(F)(F)F [AZD4320] + CN(C)CCCOc1ccc(-c2ccc3ncc4c(c3c2)n(C2CCOCC2)c(=O)n4C)cn1 [AZD0156] (first compound max 1 µM, 7x7, partner max 1 µM) | -0.0164 | -0.0231 | -0.0274 | -0.0482 | -0.034 | -0.0267 | -0.0931 | -0.127 | -0.0481 | -0.0546 | -0.0693 | -0.0376 | 0.0325 | -0.0333 | -0.0285 | -0.0454 | -0.0489 | -0.0253 | -0.0224 | -0.0413
13 | CN(CCO)CC[C@H](CSc1ccccc1)Nc1ccc(S(=O)(=O)NC(=O)c2ccc(N3CCC([C@@H](O)c4ccccc4-c4ccc(Cl)cc4)CC3)cc2)cc1S(=O)(=O)C(F)(F)F [AZD4320] + C[C@@H]1COCCN1C2=NC(=NC(=C2)C3(CC3)[S@](=N)(=O)C)C4=C5C=CNC5=NC=C4 [AZD6738] (first compound max 1 µM, 7x7, partner max 10 µM) | -0.0613 | -0.0066 | 0.0135 | -0.0723 | -0.0316 | -0.0476 | -0.0223 | 0.0161 | -0.0409 | -0.0649 | -0.0284 | -0.0791 | -0.0331 | -0.0356 | 0.028 | 0.0047 | -0.004 | -0.0309 | -0.0435 | -0.0085
14 | CN(CCO)CC[C@H](CSc1ccccc1)Nc1ccc(S(=O)(=O)NC(=O)c2ccc(N3CCC([C@@H](O)c4ccccc4-c4ccc(Cl)cc4)CC3)cc2)cc1S(=O)(=O)C(F)(F)F [AZD4320] + Cc1cc2ncnn2cc1Nc1ncc2c(n1)n(C1CCOCC1)c(=O)n2C [AZD7648] (first compound max 1 µM, 7x7, partner max 10 µM) | 0.0151 | -0.0394 | 0.0058 | -0.0406 | -0.0064 | -0.0718 | -0.057 | -0.0012 | -0.04 | -0.0192 | -0.055 | -0.0401 | 0.036 | -0.0222 | -0.0202 | -0.0395 | 0.0242 | -0.0148 | -0.0122 | -0.0386
